{"source": "patent US20100144886A1", "about": "“METHOD FOR TREATING PULMONARY ARTERIAL HYPERTENSION” (AGI Therapeutics Research Limited, priority 2006, published 2010)", "key": {"[1]": {"molecular_target": "L-type calcium channel binding (CCB) site (Rattus norvegicus, UniProt P22002)", "sequence (P22002 whole entry)": "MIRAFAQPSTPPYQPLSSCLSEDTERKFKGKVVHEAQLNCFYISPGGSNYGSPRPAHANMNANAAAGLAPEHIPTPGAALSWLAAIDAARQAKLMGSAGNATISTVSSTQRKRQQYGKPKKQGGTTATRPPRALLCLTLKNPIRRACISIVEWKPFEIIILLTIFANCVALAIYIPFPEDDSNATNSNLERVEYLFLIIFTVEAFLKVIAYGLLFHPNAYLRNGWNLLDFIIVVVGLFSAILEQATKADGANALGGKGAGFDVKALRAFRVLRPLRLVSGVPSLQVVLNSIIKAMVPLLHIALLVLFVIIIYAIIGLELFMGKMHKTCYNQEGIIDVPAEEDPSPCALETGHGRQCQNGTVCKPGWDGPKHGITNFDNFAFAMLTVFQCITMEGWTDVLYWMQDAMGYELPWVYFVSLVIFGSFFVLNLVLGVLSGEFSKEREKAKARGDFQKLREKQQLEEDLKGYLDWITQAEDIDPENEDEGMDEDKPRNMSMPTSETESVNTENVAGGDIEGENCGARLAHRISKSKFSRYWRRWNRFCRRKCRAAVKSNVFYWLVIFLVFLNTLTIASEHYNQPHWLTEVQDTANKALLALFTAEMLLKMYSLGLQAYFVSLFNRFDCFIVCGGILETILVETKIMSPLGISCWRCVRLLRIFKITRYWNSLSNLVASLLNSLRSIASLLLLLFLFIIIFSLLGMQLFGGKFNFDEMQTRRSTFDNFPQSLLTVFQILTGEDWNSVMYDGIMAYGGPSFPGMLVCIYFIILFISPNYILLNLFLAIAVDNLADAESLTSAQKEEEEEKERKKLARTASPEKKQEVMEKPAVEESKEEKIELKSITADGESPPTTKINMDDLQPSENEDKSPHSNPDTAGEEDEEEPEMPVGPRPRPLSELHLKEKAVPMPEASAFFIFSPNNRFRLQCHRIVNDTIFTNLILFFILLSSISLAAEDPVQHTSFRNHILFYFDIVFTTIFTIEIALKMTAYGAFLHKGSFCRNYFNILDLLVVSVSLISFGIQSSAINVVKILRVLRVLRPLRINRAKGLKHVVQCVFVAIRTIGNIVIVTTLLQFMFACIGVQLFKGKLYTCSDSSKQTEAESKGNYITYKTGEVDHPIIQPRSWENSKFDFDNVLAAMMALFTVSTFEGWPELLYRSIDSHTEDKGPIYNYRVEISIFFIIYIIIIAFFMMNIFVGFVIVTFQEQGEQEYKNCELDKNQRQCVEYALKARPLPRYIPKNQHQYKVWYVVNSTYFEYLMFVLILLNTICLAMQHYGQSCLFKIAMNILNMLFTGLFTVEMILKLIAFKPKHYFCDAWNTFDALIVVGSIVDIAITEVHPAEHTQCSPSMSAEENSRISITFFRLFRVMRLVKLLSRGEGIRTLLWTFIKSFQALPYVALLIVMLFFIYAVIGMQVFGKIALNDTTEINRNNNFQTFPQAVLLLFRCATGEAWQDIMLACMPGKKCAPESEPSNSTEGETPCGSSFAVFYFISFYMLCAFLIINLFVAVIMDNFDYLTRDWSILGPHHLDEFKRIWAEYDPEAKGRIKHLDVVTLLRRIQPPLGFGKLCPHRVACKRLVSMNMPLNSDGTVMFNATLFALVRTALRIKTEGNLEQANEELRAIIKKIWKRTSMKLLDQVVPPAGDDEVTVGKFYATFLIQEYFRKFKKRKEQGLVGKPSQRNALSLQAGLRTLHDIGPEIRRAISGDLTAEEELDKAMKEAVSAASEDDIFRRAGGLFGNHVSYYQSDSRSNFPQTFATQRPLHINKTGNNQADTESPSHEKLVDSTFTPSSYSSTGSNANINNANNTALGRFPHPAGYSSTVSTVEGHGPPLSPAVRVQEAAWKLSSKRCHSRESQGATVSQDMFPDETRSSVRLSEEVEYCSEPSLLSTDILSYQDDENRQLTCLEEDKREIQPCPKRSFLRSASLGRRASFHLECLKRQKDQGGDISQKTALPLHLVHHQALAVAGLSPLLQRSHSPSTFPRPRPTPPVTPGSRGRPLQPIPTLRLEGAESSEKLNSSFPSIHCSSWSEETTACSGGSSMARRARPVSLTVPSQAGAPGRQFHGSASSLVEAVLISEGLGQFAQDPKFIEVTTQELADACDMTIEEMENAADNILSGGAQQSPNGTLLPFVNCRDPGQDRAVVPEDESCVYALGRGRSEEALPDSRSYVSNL", "assay": "L-type calcium channel binding (CCB) affinity", "settings": "rat cerebral cortex; relevant L-type calcium channel site of each blocker", "experimental": "(§1) Each of those receptors was analyzed by methods known in the art. Initial assessment of binding at 100×10^−7 M (10 micro molar) was performed in duplicate.\nThe binding activity of the reported receptors was analyzed using the following methods.\nThere are three distinct binding sites on the L-type calcium channel receptor. Further, the binding affinity at a particular site can be allosterically modulated by binding at one of the other sites. Thus, testing included the affinity of the different types of calcium channel blockers at their particular site of interaction."}, "[2]": {"molecular_target": "T1, melatonin ML-1", "T1 construct": "other: chicken brain; other: at 100×10^−7 M", "assay": "Melatonin ML1 binding affinity", "set-up": "species or system chicken", "experimental": "as §1"}, "[3]": {"molecular_target": "melatonin ML-1", "assay": "Melatonin ML1 binding affinity", "set-up": "species or system chicken", "settings": "relative potency compared to CCB, Table 2", "experimental": "as §1"}, "[4]": {"molecular_target": "T2, 5-HT2B receptor (Homo sapiens, UniProt P41595)", "T2 sequence (P41595 whole entry)": "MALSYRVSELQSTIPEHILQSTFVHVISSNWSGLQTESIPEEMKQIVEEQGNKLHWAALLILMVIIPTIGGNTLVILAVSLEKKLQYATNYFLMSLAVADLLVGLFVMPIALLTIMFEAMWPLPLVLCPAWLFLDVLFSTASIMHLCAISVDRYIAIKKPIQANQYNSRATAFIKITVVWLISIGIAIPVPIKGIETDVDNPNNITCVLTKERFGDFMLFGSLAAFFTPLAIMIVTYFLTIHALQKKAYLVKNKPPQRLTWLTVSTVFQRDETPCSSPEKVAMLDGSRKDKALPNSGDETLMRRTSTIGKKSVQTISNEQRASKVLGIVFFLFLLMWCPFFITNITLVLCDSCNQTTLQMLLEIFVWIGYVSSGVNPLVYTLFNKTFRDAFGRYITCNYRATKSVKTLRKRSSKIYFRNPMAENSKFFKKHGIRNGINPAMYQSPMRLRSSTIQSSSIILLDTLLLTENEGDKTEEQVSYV", "assay": "5-HT2B binding affinity of racemic verapamil and other calcium channel blockers (5-HT control, Bonhaus method)", "set-up": "expressed in transfected cells; host or cells: CHO cells", "settings": "relative potency compared to CCB, Table 2", "experimental": "as §1"}, "[5]": {"molecular_target": "5-HT1D receptor (Homo sapiens, UniProt P28221)", "sequence (P28221 whole entry)": "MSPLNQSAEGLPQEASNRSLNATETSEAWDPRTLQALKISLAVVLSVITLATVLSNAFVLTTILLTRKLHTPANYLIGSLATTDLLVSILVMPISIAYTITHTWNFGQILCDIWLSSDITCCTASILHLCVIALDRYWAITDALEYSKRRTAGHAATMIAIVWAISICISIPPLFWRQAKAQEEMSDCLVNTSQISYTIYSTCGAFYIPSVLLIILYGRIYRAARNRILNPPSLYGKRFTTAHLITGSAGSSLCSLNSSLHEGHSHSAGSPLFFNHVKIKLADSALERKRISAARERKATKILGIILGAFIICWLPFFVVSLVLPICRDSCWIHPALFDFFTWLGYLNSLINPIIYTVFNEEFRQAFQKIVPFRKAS", "settings": "at 100×10^−7 M", "experimental": "as §1"}, "[6]": {"molecular_target": "T2, 5-HT2B receptor", "experimental": "as §1"}, "[7]": {"molecular_target": "5-HT4E receptor (Homo sapiens, UniProt Q13639)", "sequence (Q13639 1-378 isoform Q13639-5)": "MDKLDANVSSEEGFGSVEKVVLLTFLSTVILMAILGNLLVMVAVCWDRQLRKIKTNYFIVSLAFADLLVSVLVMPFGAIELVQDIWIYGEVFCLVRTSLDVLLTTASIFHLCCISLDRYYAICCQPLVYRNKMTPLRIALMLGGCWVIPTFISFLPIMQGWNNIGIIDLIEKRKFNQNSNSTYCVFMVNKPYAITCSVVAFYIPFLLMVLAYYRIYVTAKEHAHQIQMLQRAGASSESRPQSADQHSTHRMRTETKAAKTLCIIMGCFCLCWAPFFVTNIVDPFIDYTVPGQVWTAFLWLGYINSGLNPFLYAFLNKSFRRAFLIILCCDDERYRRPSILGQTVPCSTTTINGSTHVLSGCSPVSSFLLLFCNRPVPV", "settings": "at 100×10^−7 M", "experimental": "as §1"}, "[8]": {"molecular_target": "5-HT6 receptor (Homo sapiens, UniProt P50406)", "sequence (P50406 whole entry)": "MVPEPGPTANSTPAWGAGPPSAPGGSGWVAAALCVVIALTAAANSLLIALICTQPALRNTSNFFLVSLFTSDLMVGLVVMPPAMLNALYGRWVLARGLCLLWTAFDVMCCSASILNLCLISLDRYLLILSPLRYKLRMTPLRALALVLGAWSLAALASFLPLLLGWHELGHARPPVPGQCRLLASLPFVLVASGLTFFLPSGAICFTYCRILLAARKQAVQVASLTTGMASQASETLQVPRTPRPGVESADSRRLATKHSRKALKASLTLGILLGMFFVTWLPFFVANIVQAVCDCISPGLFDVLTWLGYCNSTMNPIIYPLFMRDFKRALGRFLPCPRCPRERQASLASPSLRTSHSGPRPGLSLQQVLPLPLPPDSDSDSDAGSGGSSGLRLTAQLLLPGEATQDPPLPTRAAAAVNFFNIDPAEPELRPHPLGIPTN", "settings": "at 100×10^−7 M", "experimental": "as §1"}, "[9]": {"molecular_target": "5-HT5A receptor (Homo sapiens, UniProt P47898)", "sequence (P47898 whole entry)": "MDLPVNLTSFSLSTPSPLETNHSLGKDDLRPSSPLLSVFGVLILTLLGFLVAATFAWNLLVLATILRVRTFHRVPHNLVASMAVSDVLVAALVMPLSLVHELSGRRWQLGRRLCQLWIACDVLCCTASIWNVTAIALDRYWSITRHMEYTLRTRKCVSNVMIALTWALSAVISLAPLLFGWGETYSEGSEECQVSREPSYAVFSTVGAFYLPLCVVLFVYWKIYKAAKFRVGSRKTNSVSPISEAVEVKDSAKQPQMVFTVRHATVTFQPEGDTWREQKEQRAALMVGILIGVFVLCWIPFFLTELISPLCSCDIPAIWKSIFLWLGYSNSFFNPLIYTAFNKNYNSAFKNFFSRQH", "settings": "at 100×10^−7 M", "experimental": "as §1"}, "[10]": {"molecular_target": "Na channel", "assay": "Na channel binding", "source_text": "[…]. […] […].\nThose results are summarized at Table 9."}}, "note": "Where two headings read alike, the source gives them in different places."}
{"smiles": "COC(=O)C1=C(C)NC(C)=C(C(=O)OC(C)C)C1c1cccc2nonc12", "note": "(centres unmarked) [Isradipine]", "values": [{"measurement": "IC50", "setting": "[1]", "result": 0.46, "unit": "nM"}, {"measurement": "IC50", "setting": "[2]; chicken brain", "result": 2000, "unit": "nM"}, {"measurement": "(IC50: ML-1)/(IC50: CCB)", "setting": "[3]", "result": "4,348"}, {"measurement": "(IC50: 5-HT2B)/(IC50: CCB)", "setting": "[4]", "result": "21,739"}]}
{"smiles": "COc1ccc([C@@H]2Sc3ccccc3N(CCN(C)C)C(=O)[C@@H]2OC(C)=O)cc1", "note": "[Diltiazem]", "values": [{"measurement": "percentage of binding, ML-1", "setting": "[2]; at 100×10^−7 M", "result": ">100(9%)"}]}
{"smiles": "COc1ccc(CCN(C)CCC[C@](C#N)(c2ccc(OC)c(OC)c2)C(C)C)cc1OC", "note": "[(R)-verapamil]", "values": [{"measurement": "percentage of binding, 5-HT1D", "setting": "[5]", "result": ">100(17%)"}, {"measurement": "% Binding, 5-HT2B", "setting": "[6]; at 0.1 (×10^−7 M)", "result": 0, "unit": "%"}, {"measurement": "% Binding, 5-HT2B", "setting": "[6]; at 0.3 (×10^−7 M)", "result": 10, "unit": "%"}, {"measurement": "% Binding, 5-HT2B", "setting": "[6]; at 1.0 (×10^−7 M)", "result": 39, "unit": "%"}, {"measurement": "% Binding, 5-HT2B", "setting": "[6]; at 3.0 (×10^−7 M)", "result": 68, "unit": "%"}, {"measurement": "percentage of binding, 5-HT4E", "setting": "[7]", "result": ">100(24%)"}, {"measurement": "percentage of binding, 5-HT6", "setting": "[8]", "result": ">100(47%)"}, {"measurement": "percentage of binding, 5-HT5A", "setting": "[9]", "result": ">100(19%)"}, {"measurement": "IC50", "setting": "[10]", "result": 1800, "unit": "nM"}]}
